This note sets out measurements from patent US8022091B2, “Triazole derivative” (Taisho Pharmaceutical Co., Ltd., priority 2006, dated 2011).

Each structure is given as a SMILES string. pIC50: −log10 of the molar value.

T1 sequence (P21453 whole entry): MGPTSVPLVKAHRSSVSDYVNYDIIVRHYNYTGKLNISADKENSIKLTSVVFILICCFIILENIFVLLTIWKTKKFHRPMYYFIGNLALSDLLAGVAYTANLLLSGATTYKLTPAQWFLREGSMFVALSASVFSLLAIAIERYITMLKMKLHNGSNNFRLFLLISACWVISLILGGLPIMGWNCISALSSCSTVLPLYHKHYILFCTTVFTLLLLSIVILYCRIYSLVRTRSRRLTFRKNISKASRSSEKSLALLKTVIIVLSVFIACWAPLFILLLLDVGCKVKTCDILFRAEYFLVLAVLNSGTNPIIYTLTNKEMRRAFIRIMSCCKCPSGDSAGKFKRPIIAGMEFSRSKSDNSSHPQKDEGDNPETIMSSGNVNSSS

One test concerns the target T1, human Edg-1 (S1P1) (Homo sapiens, UniProt P21453).
T1 construct: expressed in transfected cells; host or cells: HEK-293
The experiment in a line: S1P1 binding assay: inhibition of [33P]-S1P binding to membrane fraction of HEK-293 cells transferred with the human Edg-1 (S1P1) gene. Particulars: [33P]-S1P 0.1 nM, human Edg-1 (S1P1) HEK-293 membrane fraction, 1 h at 30° C.; read-out: IC50 (concentration at which binding in the absence of the test compound was inhibited by 50%). In outline: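 Membranes from S1P1-transfected HEK-293 cells incubated 1 h at 30° C in pH 7.4 Tris buffer with fatty acid-free BSA, 0.1 nM [33P]-S1P and test compound (0.1% DMSO). Filter-bound radioactivity was counted; inhibition corrected for binding to untransfected-cell membranes, and IC50 derived from concentration series.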
`CCC(NS(=O)(=O)c1ccc2c(Cl)cccc2c1)c1nnc(Oc2cccc(N3CCN(C)CC3)c2)n1CC` (stereo not drawn) [Compound 671]: the pIC50 is at least 8.00.

The same test, now with this note: test compound 10 μM; inhibition of [33P]-S1P binding, membrane fraction.
On to `CCn1c(Oc2cccc(N3CCN(C)CC3)c2)nnc1[C@@H](C)NS(=O)(=O)c1cc(Br)ccc1Br` [Compound 597], for which the inhibition (as a rule, the drop in the measured response relative to a control, in per cent) at 10 µM was found to be 97.3%. Take `CCn1c(Oc2ccc3cc[nH]c3c2)nnc1[C@@H](C)NS(=O)(=O)c1ccc(Br)c(C(F)(F)F)c1` [Compound 488]: the inhibition at 10 µM was determined as 62.5%. Same read-out and setting: in the case of `CCn1c(Oc2ccc3cc[nH]c3c2)nnc1[C@@H](C)NS(=O)(=O)c1ccsc1` [Compound 466] it was 51.1%; in that of `CCc1cc(Br)ccc1S(=O)(=O)N[C@H](C)c1nnc(Oc2cccc(N3CCN(C)CC3)c2)n1CC` [Compound 574], 86.9%. As to `CCn1c(Oc2cccc(N3CCN(C)CC3)c2)nnc1[C@@H](C)NS(=O)(=O)c1cc(Cl)ccc1OC` [Compound 594], the inhibition at 10 µM was found to be 84%.

For `CCn1c(Oc2cccc(N3CCN(C)CC3)c2)nnc1[C@@H](C)NS(=O)(=O)c1cc(C(F)(F)F)ccc1Cl` [Compound 591], the inhibition at 10 µM was 77.5%.

On to `CCCCOc1ccc(S(=O)(=O)N[C@H](C)c2nnc(Oc3cccc(N4CCN(C)CC4)c3)n2CC)cc1` [Compound 502], for which the inhibition at 10 µM worked out at 75.5%.

Consider `CCn1c(Oc2cccc(N3CCN(C)CC3)c2)nnc1[C@@H](C)NS(=O)(=O)CC(c1ccccc1)c1ccccc1` [Compound 587], for which the inhibition at 10 µM stood at 60%. On the same count and under the same terms, in the case of `CCn1c(Oc2cccc(N3CCN(C)CC3)c2)nnc1[C@@H](C)NS(=O)(=O)c1ccc2c(c1)CN(C(=O)C(F)(F)F)CC2` [Compound 536] it was 50.3%; in that of `CCn1c(Oc2cccc(N3CCN(C)CC3)c2)nnc1[C@@H](C)NS(=O)(=O)c1ccc(F)c(F)c1F` [Compound 577], 92.4%.

As for `CCn1c(Oc2ccc3cc[nH]c3c2)nnc1[C@@H](C)NS(=O)(=O)c1cc(OC)ccc1OC` [Compound 400], the inhibition at 10 µM is 75.3%. Still for that read-out and setting: in the case of `CCn1c(Oc2ccc3cc[nH]c3c2)nnc1[C@@H](C)NS(=O)(=O)c1cc(C)sc1C` [Compound 472] it was 55.3%. On the same count and under the same terms, in the case of `CCn1c(Oc2cccc(N3CCN(C)CC3)c2)nnc1[C@@H](C)NS(=O)(=O)c1ccc(C(C)(C)C)cc1` [Compound 500] it was 90.2%. The same measure, in the same setting: with `CCn1c(Oc2ccc3cc[nH]c3c2)nnc1[C@@H](C)NS(=O)(=O)c1ccc(Cl)c(S(N)(=O)=O)c1` [Compound 484] the figure was 65.3%.

For the molecule `CCn1c(Oc2cccc(N3CCN(C)CC3)c2)nnc1[C@@H](C)NS(=O)(=O)c1cc(F)cc(F)c1` [Compound 606], the inhibition at 10 µM was 108%. The same measure, in the same setting: in the case of `CCn1c(Oc2ccc3cc[nH]c3c2)nnc1[C@@H](C)NS(=O)(=O)c1cc(F)c(F)cc1F` [Compound 427] it was 86.5%; in that of `CCn1c(Oc2cccc(N3CCN(C)CC3)c2)nnc1[C@@H](C)NS(=O)(=O)c1cccc2ccccc12` [Compound 522], 98.4%.

As for `CCn1c(Oc2cccc(N3CCN(C)CC3)c2)nnc1[C@@H](C)NS(=O)(=O)c1ccc(C(C)=O)cc1` [Compound 497], the inhibition at 10 µM turned out to be 104%. Same read-out and setting: with `CCn1c(Oc2cccc(N3CCN(C)CC3)c2)nnc1[C@@H](C)NS(=O)(=O)c1cc(F)c(F)cc1Cl` [Compound 580] the figure was 89.2%; with `CCn1c(Oc2cccc(N3CCN(C)CC3)c2)nnc1[C@@H](C)NS(=O)(=O)Cc1cccc(Cl)c1` [Compound 599], 80.6%; with `CCn1c(Oc2ccc3cc[nH]c3c2)nnc1[C@@H](C)NS(=O)(=O)c1ccc(Cl)cc1F` [Compound 438], 71.6%.

For the molecule `CCn1c(Oc2cccc(N3CCN(C)CC3)c2)nnc1[C@@H](C)NS(=O)(=O)c1ccc(C(F)(F)F)cc1Cl` [Compound 644], the inhibition at 10 µM came to 93%. Regarding `CCn1c(Oc2cccc(N3CCN(C)CC3)c2)nnc1[C@@H](C)NS(=O)(=O)c1c(C)cc(OC)c(C)c1C` [Compound 558], the inhibition at 10 µM amounted to 64.8%. The same measure, in the same setting: in the case of `CCn1c(Oc2cccc(N3CCN(C)CC3)c2)nnc1[C@@H](C)NS(=O)(=O)c1cccc(OC)c1` [Compound 556] it was 105%; in that of `CCn1c(Oc2cccc(N3CCN(C)CC3)c2)nnc1[C@@H](C)NS(=O)(=O)c1cc(C(F)(F)F)cc(C(F)(F)F)c1` [Compound 553], 107%. Same read-out and setting: in the case of `CCn1c(Oc2cccc(N3CCN(C)CC3)c2)nnc1[C@@H](C)NS(=O)(=O)c1cccc(C(C)=O)c1` [Compound 647] it was 99%; in that of `CCn1c(Oc2cccc(N3CCN(C)CC3)c2)nnc1[C@@H](C)NS(=O)(=O)c1cccc(F)c1` [Compound 592], 95.8%. On the same count and under the same terms, with `CCn1c(Oc2cccc(N3CCN(C)CC3)c2)nnc1[C@@H](C)NS(=O)(=O)c1c(Cl)cc(C(F)(F)F)cc1Cl` [Compound 579] the figure was 87.6%; with `CCn1c(Oc2ccc3cc[nH]c3c2)nnc1[C@@H](C)NS(=O)(=O)c1cc(Br)c(F)cc1F` [Compound 416], 83.2%; with `CCn1c(Oc2cccc(N3CCN(C)CC3)c2)nnc1[C@@H](C)NS(=O)(=O)c1c(C)cccc1Cl` [Compound 551], 76.1%. On to `CCC(NS(=O)(=O)c1ccc2c(Cl)cccc2c1)c1nnc(Oc2cccc(N3CCN(C)CC3)c2)n1CC` (stereo not drawn) [Compound 671], for which the inhibition at 10 µM came out at 101%. On the same count and under the same terms, with `CCn1c(Oc2ccc(F)cc2)nnc1[C@@H](CF)NS(=O)(=O)c1ccc(Cl)c(Cl)c1` [Compound 689] the figure was 92.7%; with `CCn1c(Oc2ccc3cc[nH]c3c2)nnc1[C@@H](C)NS(=O)(=O)c1ccc(C(F)(F)F)cc1Cl` [Compound 475], 51.8%; with `CCn1c(Oc2cccc(N3CCN(C)CC3)c2)nnc1[C@@H](C)NS(=O)(=O)c1ccccc1OC` [Compound 626], 61.1%.

The same test, now with this note: test compound at 10 μM; inhibition of [33P]-S1P binding to the membrane fraction of HEK-293 cells expressing human Edg-1 (S1P1).
Take `CCn1c(Oc2ccc3cc[nH]c3c2)nnc1[C@@H](C)NS(=O)(=O)c1cc(C(F)(F)F)cc(C(F)(F)F)c1` [Compound 382]: the inhibition at 10 µM came out at 66.9%. The same measure, in the same setting: in the case of `CCn1c(Oc2ccc(F)cc2)nnc1[C@@H](C)NS(=O)(=O)c1cc(F)c(F)cc1F` [Compound 256] it was 85.2%; in that of `CCn1c(Oc2ccc(F)cc2)nnc1[C@@H](C)NS(=O)(=O)c1cc(C)c(Cl)cc1Cl` [Compound 248], 105%. Same read-out and setting: with `CCc1ccc(OC)c(S(=O)(=O)N[C@H](C)c2nnc(Oc3ccc(F)cc3)n2CC)c1` [Compound 311] the figure was 76.5%. The same measure, in the same setting: in the case of `CCn1c(Oc2ccc3cc[nH]c3c2)nnc1[C@@H](C)NS(=O)(=O)c1cc(Cl)ccc1Cl` [Compound 341] it was 92.8%.

Take `CCn1c(Oc2ccc(F)cc2)nnc1[C@@H](C)NS(=O)(=O)c1cc(Cl)cc(Cl)c1` [Compound 213]: the inhibition at 10 µM worked out at 102%. The same measure, in the same setting: in the case of `CCn1c(Oc2ccc3cc[nH]c3c2)nnc1[C@@H](C)NS(=O)(=O)c1ccc(F)cc1` [Compound 346] it was 89.2%; in that of `CCn1c(Oc2ccc(F)cc2)nnc1[C@@H](C)NS(=O)(=O)c1cccc(C#N)c1` [Compound 165], 72.9%. On the same count and under the same terms, in the case of `CCn1c(Oc2ccc(F)cc2)nnc1[C@@H](C)NS(=O)(=O)c1ccc(C)cc1` [Compound 186] it was 86.8%; in that of `CCn1c(Oc2ccc(F)cc2)nnc1[C@@H](C)NS(=O)(=O)c1ccc(Br)cc1F` [Compound 242], 85.9%. The same measure, in the same setting: with `CCn1c(Oc2ccc3cc[nH]c3c2)nnc1[C@@H](C)NS(=O)(=O)c1ccc(I)cc1` [Compound 355] the figure was 98.8%; with `CCn1c(Oc2ccc(F)cc2)nnc1[C@@H](C)NS(=O)(=O)c1cccc(C(C)=O)c1` [Compound 306], 60.2%.

Take `C=Cc1ccc(S(=O)(=O)N[C@H](C)c2nnc(Oc3ccc(F)cc3)n2CC)cc1` [Compound 191]: the inhibition at 10 µM came to 96.9%.

`CCn1c(Oc2ccc(F)cc2)nnc1[C@@H](C)NS(=O)(=O)c1ccc(F)cc1F` [Compound 227]: the inhibition at 10 µM turned out to be 51.4%.

For `CCn1c(Oc2ccc3cc[nH]c3c2)nnc1[C@@H](C)NS(=O)(=O)c1ccc(OC)c(OC)c1` [Compound 343], the inhibition at 10 µM amounted to 86.5%.

As to `CCn1c(Oc2ccc(F)cc2)nnc1[C@@H](C)NS(=O)(=O)c1ccc(C)c(F)c1` [Compound 272], the inhibition at 10 µM turned out to be 104%. Consider `CCn1c(Oc2ccc(F)cc2)nnc1[C@@H](C)NS(=O)(=O)c1ccc(F)c(C#N)c1` [Compound 261], for which the inhibition at 10 µM turned out to be 73.6%. Still for that read-out and setting: with `CCn1c(Oc2ccc(F)cc2)nnc1[C@@H](C)NS(=O)(=O)c1ccc(C(C)C)cc1` [Compound 232] the figure was 68.7%. Same read-out and setting: in the case of `CCn1c(Oc2ccc(F)cc2)nnc1[C@@H](C)NS(=O)(=O)c1ccc(Br)cc1` [Compound 156] it was 107%; in that of `CCn1c(Oc2ccc(F)cc2)nnc1[C@@H](C)N(C)S(=O)(=O)c1ccc(Cl)c(Cl)c1` [Compound 115, 3,4-Dichloro-N-[(R)-1-[4-ethyl-5-(4-fluorophenoxy)-4H-[1,2,4]triazol-3-yl]-ethyl]-N-methyl-benzenesulfonamide], 81.8%; in that of `CCn1c(Oc2ccc(F)cc2)nnc1[C@@H](C)NS(=O)(=O)c1ccc(C#N)cc1` [Compound 223], 90.8%. The same measure, in the same setting: with `CCn1c(Cc2ccc(F)cc2)nnc1[C@@H](C)NS(=O)(=O)c1csc2ccccc12` [Compound 324] the figure was 81.8%; with `CCn1c(Oc2ccc(F)cc2)nnc1[C@@H](C)NS(=O)(=O)c1ccc(OC)c(OC)c1` [Compound 170], 76%. Regarding `CCn1c(Oc2ccc3cc[nH]c3c2)nnc1[C@@H](C)NS(=O)(=O)c1c(C)c(C)c(C)c(C)c1C` [Compound 391], the inhibition at 10 µM is 80.4%. Still for that read-out and setting: in the case of `CCn1c(Oc2ccc(F)cc2)nnc1[C@@H](C)NS(=O)(=O)c1ccc(F)c2ccccc12` [Compound 307] it was 94.4%.
